# Assay results taken from patent EP4549446A1 (priority 2023, dated 2025).
# Assays:
# Nrf2 = assay: Nrf2-ARE induction, luciferase assay in AREc32 cells; type: cell-based; details: CD: concentration required to double the specific activity of the luciferase gene, 24 h treatment
# [1] = tested on: normal cell subpopulations from healthy donors; assay: Ex vivo cell viability by flow cytometry on normal cells; type: cell-based, human; details: normal cell subpopulations from healthy donors including hematopoietic precursor cells, 18 h
# Description: Primary human cells from healthy donors were used in ex vivo assays. The mononuclear fraction was extracted with Ficoll-Paque by density gradient centrifugation and subsequently differentiated from the other cell populations by flow cytometry using an appropriate combination of antibodies: anti-human CD45-Pacific Blue, CD34-FITC, CD19-APC-H7 (BD Biosciences, San Jose, CA) and CD3-FITC (Invitrogen).
# Cell viability and cell lysis were also assessed by annexin V/7-AAD using flow cytometry. Donor cells were analysed using 7-AAD a combination of monoclonal antibodies (anti-CD45-Pacific Blue, anti-CD34-FITC, anti-CD3-FITC, anti-CD19-APC-H7). The cells were acquired with the FACSCanto II flow cytometer (BD Biosciences) and analysed with the Infinicyt™ software (Cytognos, Spain).
# [2] = SFNA/αCD association constant by 1H NMR titration in D2O; type: physicochemical; details: 298 K, SFNA 2 mM against increasing α-cyclodextrin
# Description: The preparation of inclusion complexes was carried out by a physical mixture in water between α-cyclodextrin (host) and the sulforaphane analogue (guest; SFNA). The confirmation of complex formation, its stoichiometry, association constant (Kas), and degree of degradation were determined using ^1H NMR spectroscopy.
# Determination of the SFNA/αCD association constant. The determination of association constants (Kas, M^-1) for the SFNA/αCD complex was performed through ^1H NMR titration experiments in D2O. The association constants at 298 K were experimentally determined by measuring the changes in chemical shift (Δδ, ppm) of the ^1H NMR signals using fixed solutions of the analogues against increasing concentrations of α-cyclodextrin. In a typical titration experiment, a 2 mM solution of the SFN analogue in D2O was prepared, and a 500 µL aliquot was transferred to the NMR tube, and the initial spectrum was recorded. Furthermore, a solution of a mixture (SFNA at 2 mM/ αCD at 16.11 mM) was prepared and added in 10 µL aliquots to the NMR tube, keeping the analogue concentration constant. The added amounts of α-cyclodextrin were increased until complete complexation of the analogue, and ^1H NMR spectra were recorded after each addition. The mathematical treatment of the curves of chemical shift variations of the analogue proton signals (Δδ) against increasing α-cyclodextrin concentrations using an iterative least-squares fitting procedure allowed for the determination of the Kas values for the analogues (Table 1).
# AML cell lines = type: cell-based, human
Structure (SMILES),EC (2-fold) (Nrf2; read-out: CD ± SEM) [µM],viability of normal healthy cells [1],Kas [2],CD ± SEM (Nrf2) [µM],proapoptotic effect on AML cell lines (AML cell lines)
"C[S+]([O-])CCCCN=C=S (stereo not shown) [SFN-1, sulforaphane, reference compound]",0.44 ± 0.28,,,,
"CCOP(=O)(OCC)OCCCN=C=S [SFN-10, Diethyl (3-isothiocyanatopropyl) phosphate]",,not affected,"34,87 M^-1",0.56 ± 0.07,partially selective proapoptotic effect
"CCOP(=O)(CCCCN=C=S)OCC [SFN-14, Diethyl (4-isothiocyanatobutyl)phosphonate]",,,"135,95 M^-1",,partially selective proapoptotic effect
"CC(C)OP(=O)(OCCCN=C=S)OC(C)C [SFN-15, Diisopropyl (3-isothiocyanatopropyl) phosphate]",,,"101,95 M^-1",0.52 ± 0.08,
"O=P(OCCCN=C=S)(Oc1ccccc1)Oc1ccccc1 [SFN-16, Diphenyl 3-isothiocyanatopropyl phosphate]",,,,1.55 ± 0.45,
